The target of one assay is T1, recombinant SHIP1 (Homo sapiens, UniProt Q92835).
T1 sequence (Q92835 1-1189): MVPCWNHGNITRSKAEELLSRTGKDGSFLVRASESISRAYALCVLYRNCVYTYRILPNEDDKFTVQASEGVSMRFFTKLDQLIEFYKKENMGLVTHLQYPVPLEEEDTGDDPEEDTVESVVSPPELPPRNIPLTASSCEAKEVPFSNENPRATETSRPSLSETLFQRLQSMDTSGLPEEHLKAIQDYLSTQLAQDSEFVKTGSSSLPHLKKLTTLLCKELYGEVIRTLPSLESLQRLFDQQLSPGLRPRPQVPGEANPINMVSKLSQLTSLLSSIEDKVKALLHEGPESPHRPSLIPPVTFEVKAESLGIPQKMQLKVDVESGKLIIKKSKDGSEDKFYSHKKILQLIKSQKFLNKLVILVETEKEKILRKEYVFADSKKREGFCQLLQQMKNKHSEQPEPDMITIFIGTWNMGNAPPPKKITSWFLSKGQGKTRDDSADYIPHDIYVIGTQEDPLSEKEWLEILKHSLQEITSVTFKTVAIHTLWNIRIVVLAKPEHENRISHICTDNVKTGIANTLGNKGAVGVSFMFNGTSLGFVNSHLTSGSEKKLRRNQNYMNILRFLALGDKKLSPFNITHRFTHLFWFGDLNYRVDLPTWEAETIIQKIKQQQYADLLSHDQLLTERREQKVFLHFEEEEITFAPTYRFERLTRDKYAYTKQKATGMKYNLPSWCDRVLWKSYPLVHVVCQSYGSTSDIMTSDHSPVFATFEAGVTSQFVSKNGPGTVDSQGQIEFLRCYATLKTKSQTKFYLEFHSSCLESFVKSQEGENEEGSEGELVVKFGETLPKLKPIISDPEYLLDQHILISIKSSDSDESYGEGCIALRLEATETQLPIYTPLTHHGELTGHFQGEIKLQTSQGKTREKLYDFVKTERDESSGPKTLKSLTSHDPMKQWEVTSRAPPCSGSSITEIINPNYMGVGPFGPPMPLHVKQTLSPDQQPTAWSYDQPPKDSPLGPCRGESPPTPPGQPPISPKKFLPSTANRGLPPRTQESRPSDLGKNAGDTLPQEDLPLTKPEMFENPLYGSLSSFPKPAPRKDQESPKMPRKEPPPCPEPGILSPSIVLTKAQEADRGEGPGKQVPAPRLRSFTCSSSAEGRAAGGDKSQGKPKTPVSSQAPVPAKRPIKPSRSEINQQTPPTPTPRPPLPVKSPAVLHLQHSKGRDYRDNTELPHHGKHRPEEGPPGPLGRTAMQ
Kind of assay: Malachite Green phosphatase assay for SHIP1 activity against PI(3,4,5)P3 substrate. The format is biochemical. As to the method: Absorbance is recorded at 620 nm, smaller numbers indicate a lack of green color and inhibition of the phosphatase.
(§1) [Noto bene: DRV-IV-26=3A5AS]

The subject of a further assay is MIR cell numbers. Kind of assay: MIR cell induction in treated mice. The format is in vivo. To be noted: FIG. 6C, D. As to the method:
as §1
The solubility of 3AC was assessed by calculating the distribution coefficient (CLogD). This calculation estimates the CLogD for 3AC at 7.17 indicating the molecule is very lipophilic. Thus, we have begun to develop novel 3AC analogs with increased aqueous solubility. One of these compounds, 3A5AS, has a CLogD of 3.33. Lipinski's rules (a common measure of small molecule pharmacokinetics) recommend a ClogD of <5 for in vivo applications.

The values that follow come from patent US11319336B2, “Ship inhibitors and uses thereof” (The Research Foundation For The State University Of New York, priority 2010, dated 2022).

“Also recorded” adds a separate entry of the source.

As for `C[C@@]12CCC[C@H]1[C@@H]1CC[C@H]3C[C@H](N)CC[C@]3(C)[C@H]1CC2` [Example 3A5AS, 3α-amino-5α-androstane], the “Inhibition of recombinant SHIP1 activity in vitro, compared with 3AC” value at recombinant SHIP1 (Malachite Green assay, PI(3,4,5)P3 substrate, FIG. 5B / FIG. 6A) is “equal inhibitory activity; also recorded: equally potent”. In the assay with MIR cell numbers, the “Concentration inducing a comparable MIR cell increase in vivo” value came out at 15 µM and the “Potency at inducing MIR cell numbers in vivo, compared with 3AC” value is reported as “more potent”.

As for `CCN` [ethylamine], the “SHIP1 inhibition by lack of green color” value at recombinant SHIP1 (SHIP1 malachite phosphatase assay, FIG. 1, visual readout) was “poor inhibitor”. Regarding `CC(C)CCC[C@@H](C)[C@H]1CC[C@H]2[C@@H]3CCC4C[C@H](N)CC[C@]4(C)[C@H]3CC[C@]12C` (some centres unmarked) [Example 3AC, reference compound], the “Concentration inducing a comparable MIR cell increase in vivo” value with MIR cell numbers worked out at 60 µM.
